Experimental data from ChEMBL document CHEMBL3627640 (Bioorg Med Chem, 2015).
pIC50: −log10 of the molar value.

Each molecule was assayed against T1, Mitogen-activated protein kinase kinase kinase 7 (Homo sapiens, UniProt O43318) (assay: Inhibition of TAK1 (unknown origin)).
T1 sequence (O43318 whole entry): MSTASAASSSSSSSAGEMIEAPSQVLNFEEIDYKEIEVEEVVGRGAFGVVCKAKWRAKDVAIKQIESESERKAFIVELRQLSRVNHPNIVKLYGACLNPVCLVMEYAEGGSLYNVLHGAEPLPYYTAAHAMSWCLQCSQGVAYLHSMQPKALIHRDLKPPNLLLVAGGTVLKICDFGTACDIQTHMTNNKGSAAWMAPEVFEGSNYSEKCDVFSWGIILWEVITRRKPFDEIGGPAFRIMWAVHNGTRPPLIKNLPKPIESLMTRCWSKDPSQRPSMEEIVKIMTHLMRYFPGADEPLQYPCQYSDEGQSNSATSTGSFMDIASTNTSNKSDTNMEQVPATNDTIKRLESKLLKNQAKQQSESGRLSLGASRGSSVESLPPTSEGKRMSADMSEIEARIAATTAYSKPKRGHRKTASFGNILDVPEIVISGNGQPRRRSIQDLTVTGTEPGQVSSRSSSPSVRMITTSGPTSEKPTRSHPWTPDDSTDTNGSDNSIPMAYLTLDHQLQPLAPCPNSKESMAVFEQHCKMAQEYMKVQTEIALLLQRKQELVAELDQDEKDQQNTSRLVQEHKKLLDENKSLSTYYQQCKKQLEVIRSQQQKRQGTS
For COc1cc(O)c2c(c1)/C=C/C[C@@H]1OC(CC(=O)[C@H]1O)C[C@H](C)OC2=O, the pIC50 was < 4.52. C/C=C/C=C\C(=O)[C@@H](O)[C@@H](O)C/C=C/c1cc(OC)cc(OC)c1C(=O)OC was tested, and the pIC50 was < 4.52. For COc1cc(O)c2c(c1)[C@H]1O[C@@H]1C[C@H](O)[C@H](O)C(=O)CCC[C@H](C)OC2=O, the pIC50 was < 4.52. For COc1cc(O)c2c(c1)/C=C/C[C@H](O)[C@H](O)C(=O)CCC[C@H](C)OC2=O, the pIC50 was 5.59. COc1cc(O)cc2c1C(=O)O[C@@H](C)CCCCC/C=C/C(=O)C2 was tested, and the pIC50 was < 4.52.
